How the values were obtained:
[1] = tested on: C57BL/6 mice immunized with MOG; assay: Experimental autoimmune encephalomyelitis (EAE) behavioral scores; assay type: in vivo; conditions: 100 mg/kg oral daily from day of immunization
Method: FIG. 15 illustrates that DA001 improves the behavioral scores of mice with experimental autoimmune encephalomyelitis. C57BL/6 mice were immunized subcutaneously at both sides of their hind limbs with myelin oligodendrocyte glycoprotein (MOG)/Complete Freund's Adjuvant (CFA) kit (Hooke Laboratories) and performed as indicated in the manufacturer's instruction. Albumin/CFA kit (Hooke Laboratories) were used as an immunization control. Oral administration of DA001 at 100 mg/kg was given daily starting from the day of immunization. The vehicle (water) was given to mice injected with MOG or albumin daily via oral administration. Animals were weighed and monitored daily and behavioral impairment was quantified based on the clinical scale. The graph presented here is a composite of four separate EAE trials. **=p≦0.01.
FIG. 16 illustrates that DA002 improves the behavioral scores of mice with experimental autoimmune encephalomyelitis. C57BL/6 mice were immunized subcutaneously at both sides of their hind limbs with myelin oligodendrocyte glycoprotein (MOG)/Complete Freund's Adjuvant (CFA) kit (Hooke Laboratories) and performed as indicated in the manufacturer's instruction. […] Animals were weighed and monitored daily and behavioral impairment was quantified based on the clinical scale. *=p≦0.05.
C57BL/6 mice were immunized subcutaneously at both sides of their hind limbs with myelin oligodendrocyte glycoprotein (MOG)/Complete Freund's Adjuvant (CFA) kit (Hooke Laboratories) and performed as in manufacturer's instruction. […] Animals were weighed and monitored daily and behavioral impairment was quantified based on the clinical scale. […]
On day 0, six-week old male C57BL/6 mice (Hong Kong University of Science and Technology, Animal Care facility) were immunized with 100 μg of myelin oligodendrocyte glycoprotein peptide (MOG35-55)/complete Freund's Adjuvant (CFA) emulsion kit (Hooke Laboratories) was injected subcutaneously at both sides of the tail base. […] The animals were also weighed and the neurological impairment was quantified daily based on the previously published criteria. […]

[2] = molecular target: EP2 receptor (Homo sapiens, UniProt P43116); assay: Cellular receptor functional assay (cAMP), EP2; assay type: cell-based; set-up: expressed in transfected cells; conditions: for Agonist effect, cAMP measurement / Antagonist effect, cAMP measurement: EP2 receptor; for Antagonist effect, cAMP measurement: in presence of PGE2
Method: FIG. 13. […] A: Cellular functional assay for EP2; B: Cellular functional assay for […].
To determine whether the inhibitory effect of DA001 on the ligand binding to EP receptors results from agonist or antagonist activity, DA001 was evaluated at a single concentration (10 μM) on cellular-specific receptor functional assays. Upon ligand binding, the EP receptors are activated which leads to an increase in intracellular cyclic AMP.
DA001 was evaluated at 6 concentrations in cellular assays assessing receptor function. Upon ligand binding, the EP2 and EP4 receptor is activated which leads to an increase in intracellular cyclic AMP.
DA021 inhibits PGE2 ligand binding to EP1, EP2 and EP4 receptors. To determine whether the inhibitory effect is due to agonist or antagonist activity, DA021 was evaluated and compared at 1 concentration (30 uM) in cellular assays assessing receptor function. Upon ligand binding, the EP receptors are activated which leads to an increase in intracellular cyclic AMP.

EP2 receptor, sequence (P43116 whole entry): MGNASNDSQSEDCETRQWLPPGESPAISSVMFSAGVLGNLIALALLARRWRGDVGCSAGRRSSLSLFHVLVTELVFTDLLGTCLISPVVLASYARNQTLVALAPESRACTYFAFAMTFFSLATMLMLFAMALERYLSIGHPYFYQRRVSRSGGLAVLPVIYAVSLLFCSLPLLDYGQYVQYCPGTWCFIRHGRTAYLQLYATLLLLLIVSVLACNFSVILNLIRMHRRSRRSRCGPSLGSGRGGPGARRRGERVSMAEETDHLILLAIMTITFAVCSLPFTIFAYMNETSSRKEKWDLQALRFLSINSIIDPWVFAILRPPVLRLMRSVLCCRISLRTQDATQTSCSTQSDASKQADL

C=C(C)[C@@H]1CC[C@]2(/C=N/O)CC[C@]3(C)C(CCC4[C@@]5(C)CCC(=O)[C@@](C)(CO)[C@@H]5CC[C@]43C)C12 (stereo partly shown) [DA021]
EAE scores vs vehicle-treated EAE mice [1]: marked decrease in the EAE scores
Agonist effect, cAMP measurement ([2]; 30 uM): −3
Antagonist effect, cAMP measurement ([2]; 30 uM): 4

C=C(C)[C@@H]1CC[C@]2(C(=O)O)CC[C@]3(C)C(CC[C@@H]4[C@@]5(C)CC[C@H](O[C@@H]6OC[C@H](O)[C@H](O)[C@H]6O[C@@H]6O[C@@H](C)[C@H](O)[C@@H](O)[C@H]6O)[C@@](C)(CO)[C@@H]5CC[C@]43C)[C@@H]12 (stereo partly drawn) [DA001, 3-O-[α-L-rhamnopyranosyl-(1→2)-α-L-arabinopyranosyl]-3,23-dihydroxy-20(29)-lupen-28-oic acid]
EAE scores vs vehicle-treated EAE mice [1]: marked decrease in EAE scores
Agonist effect, cAMP measurement ([2]; 10 μM): −0.8%
Antagonist effect, cAMP measurement ([2]; 10 μM): 2.2%
IC50 ([2]; inhibition of PGE2-induced cAMP increase, 6 concentrations, read-out: IC50, antagonist effect): 36 µM
